How the values were obtained:
[1] = system: multidrug-resistant Pseudomonas aeruginosa; experiment: Growth suppression of multidrug-resistant Pseudomonas aeruginosa clinical isolates (Test Example 7); type: cell-based; conditions: MEPM 2 μg/ml alone, compound 8 20 μM (15.5 μg/ml) alone, Combination = both, 3 wells
Experimental: The effect of NODA-GA-conjugated doripenem (compound 8) on the susceptibility of a Pseudomonas aeruginosa clinical isolate to a carbapenem antibacterial agent was evaluated by the following method. The Pseudomonas aeruginosa clinical isolate was cultured overnight with shaking in LB medium. The bacterial solution was diluted to 1/1000 with LB medium, used as a test bacterial solution, and then seeded in a 96-well plate. Meropenem (Wako Pure Chemical Industries, Ltd.) was added to this bacterial solution in such a manner that the concentration was 2 μg/ml. The effect of NODA-GA-doripenem alone was also examined. The bacteria were cultured in an incubator at 37° C. for one day, and the growth at that time was measured by turbidity (655 nm).
MEPM in Table 1 is meropenem (2 μg/ml) administered alone; NODA-GA-doripenem is compound 8 (20 μM; 15.5 μg/ml) administered alone; Combination means a combined use of meropenem (2 μg/ml) and compound 8 (20 μM; 15.5 μg/ml).

[2] = system: Multidrug-resistant Pseudomonas aeruginosa strain MR4; experiment: Growth inhibition of Pseudomonas aeruginosa strain MR4 (Test Example 8); type: cell-based; conditions: after 24 hours, compared with doripenem
Experimental: Multidrug-resistant Pseudomonas aeruginosa strain MR4 was cultured with doripenem or compound 8, and the bacterial load was assessed by turbidity after 24 hours. FIG. 18 depicts the results.

**Q.** Which results are given for `C[C@@H](O)[C@H]1C(=O)N2C(C(=O)O)=C(S[C@@H]3CN[C@H](CNS(=O)(=O)NC(=O)CCC(C(=O)O)N4CCN(CC(=O)O)CCN(CC(=O)O)CC4)C3)[C@H](C)[C@H]12` (stereo partly drawn) [compound 8, NODA-GA-conjugated doripenem]?
**A.** suppression of bacterial growth ([1]; strain 808#1): X (x indicates that the number of wells in which suppression of bacterial growth was confirmed was 1 or less); suppression of bacterial growth ([1]; strain 808#2): X (x indicates that the number of wells in which suppression of bacterial growth was confirmed was 1 or less); suppression of bacterial growth ([1]; strain MR1): ◯ (◯ indicates that bacterial growth was suppressed in all 3 wells); suppression of bacterial growth ([1]; strain MR2): ◯ (◯ indicates that bacterial growth was suppressed in all 3 wells); suppression of bacterial growth ([1]; strain MR3): Δ (Δ indicates that bacterial growth was suppressed in 2 wells out of 3 wells); suppression of bacterial growth ([1]; strain MR4): Δ (Δ indicates that bacterial growth was suppressed in 2 wells out of 3 wells); suppression of bacterial growth ([1]; strain MR5): ◯ (◯ indicates that bacterial growth was suppressed in all 3 wells); suppression of bacterial growth ([1]; strain MR6): Δ (Δ indicates that bacterial growth was suppressed in 2 wells out of 3 wells); suppression of bacterial growth ([1]; strain MR7): ◯ (◯ indicates that bacterial growth was suppressed in all 3 wells); suppression of bacterial growth ([1]; strain MR8): X (x indicates that the number of wells in which suppression of bacterial growth was confirmed was 1 or less); suppression of bacterial growth ([1]; strain MR9): ◯ (◯ indicates that bacterial growth was suppressed in all 3 wells); suppression of bacterial growth ([1]; strain MR10): Δ (Δ indicates that bacterial growth was suppressed in 2 wells out of 3 wells); suppression of bacterial growth ([1]; strain MR11): X (x indicates that the number of wells in which suppression of bacterial growth was confirmed was 1 or less); suppression of bacterial growth ([1]; strain MR12): X (x indicates that the number of wells in which suppression of bacterial growth was confirmed was 1 or less); suppression of bacterial growth ([1]; strain MR13): X (x indicates that the number of wells in which suppression of bacterial growth was confirmed was 1 or less); suppression of bacterial growth ([1]; strain MR14): Δ (Δ indicates that bacterial growth was suppressed in 2 wells out of 3 wells); suppression of bacterial growth ([1]; strain MR15): ◯ (◯ indicates that bacterial growth was suppressed in all 3 wells); suppression of bacterial growth ([1]; strain MR16): X (x indicates that the number of wells in which suppression of bacterial growth was confirmed was 1 or less); suppression of bacterial growth ([1]; strain NM1): Δ (Δ indicates that bacterial growth was suppressed in 2 wells out of 3 wells); suppression of bacterial growth ([1]; strain NM2): Δ (Δ indicates that bacterial growth was suppressed in 2 wells out of 3 wells); suppression of bacterial growth ([1]; strain NM3): ◯ (◯ indicates that bacterial growth was suppressed in all 3 wells); suppression of bacterial growth ([1]; strain NM4): ◯ (◯ indicates that bacterial growth was suppressed in all 3 wells); suppression of bacterial growth ([1]; strain NM5): X (x indicates that the number of wells in which suppression of bacterial growth was confirmed was 1 or less); anti-Pseudomonas aeruginosa effect (bacterial load by turbidity) [2]: significantly improved compared to that of doripenem
